According to patent publication US20230071637A1, “ORAL SUSPENSION WITH ANTIULCEROUS AND CHEMOPROTECTIVE EFFECT ON COLON CANCER AND PREPARATION METHOD THEREOF” (CENTRO NACIONAL DE INVESTIGACIONES CIENTIFICAS, priority 2020, published 2023):
Marks after values point to notes of the source that are not given here.

Experiments:
[1] = system: ethanol-induced gastric ulcer; test: Ethanol-induced gastric ulcer in rats; format: in vivo, Sprague-Dawley rats; details: 20 mg/kg oral single dose
Description: The composition obtained in example 2 (FAMC) was subjected to a preclinical test with animals, in which its antiulcer effect was compared with the antiulcer effects of the registered fatty alcohol tablet (RAT), and suspensions of Fatty Alcohols (FA) and microcrystalline cellulose (MC), the latter two prepared with doses of FA and MC equal to the doses of both substances in the FAMC suspension. The experimental model used in this trial was the induction of gastric ulcers in rats by ethanol. […] After completing the quarantine, the animals were randomly distributed into 11 experimental groups (10 rats/group): a negative control that only received the vehicle and 10 groups in which the ulcer was induced with 60% ethanol, among these a control positive not treated with any antiulcer agent, 8 groups treated with the substances to be evaluated and a group treated with Omeprazole as a reference substance, as shown in Table 2. […] The use of a negative control group (not subjected to damage with ethanol), as well as a positive control group (subjected to damage and without treatment with any substance) made it possible to verify the functioning of the model and compare the anti-ulcer efficacy of the substances evaluated. […]

[2] = system: gastric ulcer induced by pylorus ligation; test: Gastric ulcer induced by pylorus ligation in rats; format: in vivo, Sprague-Dawley rats
Description: The composition obtained in example 2 (FAMC) was subjected to a preclinical test with animals, in which its antiulcer effect was compared with the antiulcer effects of the registered fatty alcohol tablet (RAT), and suspensions of Fatty Alcohols (FA) and microcrystalline cellulose (MC), the latter two prepared with doses of FA and MC equal to the doses of both substances in the FAMC suspension. The experimental model used in this test was that of the induction of gastric ulcers in rats by ligation of the pylorus, which is an acid-dependent model, unlike the model presented in the previous example. […] After completing the quarantine, the animals were randomly distributed into 11 experimental groups (10 rats/group): a negative control that only received the vehicle and 10 groups in which the ulcer was induced by ligation of the pylorus, among these a positive control not treated with any antiulcer agent, 8 groups treated with the substances to be evaluated and a group treated with Omeprazole as a reference substance, as shown in Table 3. The suspensions were administered as they are, while a suspension with 1% acacia gum was prepared to administer the tablet. The use of a negative control group (not subjected to pylorus ligation), as well as that of a positive control (subjected to damage and without treatment with any substance) made it possible to verify the functioning of the model and compare the anti-ulcer efficacy of the substances evaluated. All treatments were administered orally, as a single dose, by intragastric intubation. The selected doses are within the range of effective doses verified in previous preliminary experiences and the dose of omeprazole (20 mg/kg) has also been effective in this model. To induce gastric ulcer, the animals were fasted for 24 hours prior to the experiment, with free access to water. One hour after the administration of single doses of the vehicle, and the different treatments, the animals were anesthetized by intraperitoneal injection with sodium thiopental (35 mg/kg), a 2 cm-long incision was made in the anterior third of the line abdominal media, locating the stomach and ligating the pyloric sphincter with silk suture number 2 and the abdominal wall was sutured with silk thread. One hour later, the rats were sacrificed in a halothane atmosphere, the stomachs were removed and the gastric juice collected in test tubes. The latter was centrifuged at 3000 rpm, the supernatant separated and quantified in ml.

`COc1ccc2[nH]c([S+]([O-])Cc3ncc(C)c(OC)c3C)nc2c1` (stereo not drawn) [OMP, Omeprazole] was tested, and the “Ulcer Index” value ([1]; 1 h before 60% ethanol, mean ± SEM) was 35.97 ± 14.48*** mm^2, the “I (%) inhibition of ulcer index” value ([1]; vs positive control) was 78.8% and the “Ulcer Index” value ([2]; 20 mg/kg oral single dose, 1 h before pylorus ligation, mean ± SEM) was 3,9 ± 0,5 *** mm^2. For the same molecule, the Gastric juice volume ([2]; 20 mg/kg oral single dose, supernatant of gastric juice 1 h after ligation, mean ± SEM) was 3,4 ± 0,4 ml, the “I (%) inhibition of ulcer index” value ([2]; 20 mg/kg oral single dose, vs positive control) was 83,2% and the “volume of gastric juice (effect in words)” value ([2]; pylorus ligation, doses tested, vs positive control) was “reduced”.
